Assay results reported in patent publication US20160346291A1, “COMPOSITIONS AND THERAPEUTIC METHODS FOR ACCELERATED PLAQUE REGRESSION” (Resverlogix Corp, priority 2013, published 2016).
Where two headings read alike, the source gives them in different places.

Legend:
ABCA1 = details: cited from earlier work
coronary atherosclerosis [1] = details: 2 years; pravastatin 40 mg daily, atorvastatin 80 mg daily; cited from earlier work
coronary atherosclerosis [2] = details: 2 years; rosuvastatin 40 mg daily, atorvastatin 80 mg daily; cited from earlier work
coronary atherosclerosis [3] = details: cited from earlier work
ApoA-I mRNA = ApoA-I mRNA quantitation in HepG2 cells (real-time PCR); format: cell-based; parameters: key: Active: An active compound is one that causes a >15% increase in ApoA-I mRNA at a concentration less than or equal to 100 uM; details: concentration less than or equal to 100 uM, fold induction relative to DMSO control
Summary of the method: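 HepG2 cells were lysed after compound treatment and mRNA captured on oligo plates, then quantified by one-step real-time RT-PCR with primer-probe mixes. Ct values gave fold induction relative to the matching DMSO control. Active means >15% increase in ApoA-I mRNA at ≤100 uM.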

In the case of `O=C(O)C[C@H](O)C[C@H](O)/C=C/c1c(C2CC2)nc2ccccc2c1-c1ccc(F)cc1` [pitavastatin, (3R,5S,6E)-7-[2-cyclopropyl-4-(4-fluorophenyl)quinolin-3-yl]-3,5-dihydroxyhept-6-enoic acid], the “effect on expression of ABCA1” value (ABCA1) is listed as “increase expression of ABCA1”.
In the case of `CC(C)c1c(C(=O)Nc2ccccc2)c(-c2ccccc2)c(-c2ccc(F)cc2)n1CC[C@@H](O)C[C@@H](O)CC(=O)O` [atorvastatin], the “effect on expression of ABCA1” value (ABCA1) is listed as “inhibit ABCA1 expression”, the “median change in PAV” value (coronary atherosclerosis [1]) is listed as “+0.2%” and the “median change in PAV” value (coronary atherosclerosis [2]) is listed as −0.99%.
For `CC(C)c1nc(N(C)S(C)(=O)=O)nc(-c2ccc(F)cc2)c1/C=C/[C@@H](O)C[C@@H](O)CC(=O)O` [rosuvastatin, (3R,5S,6E)-7-[4-(4-fluorophenyl)-2-(N-methylmethanesulfonamido)-6-(propan-2-yl)pyrimidin-5-yl]-3,5-dihydroxyhept-6-enoic acid], the “effect on expression of ABCA1” value (ABCA1) is listed as “increase expression of ABCA1”, the “median change in PAV” value (coronary atherosclerosis [2]) is listed as −1.22% and the “median change PAV” value (coronary atherosclerosis [3]; 2 years, rosuvastatin 40 mg daily, overall) is listed as −0.79%. The “median decrease in PAV from baseline” value (coronary atherosclerosis [3]; 2 years, rosuvastatin 40 mg daily, subgroup with average HDL-C during treatment less than 40 mg/dL) was −1.3% and the PAV decrease (coronary atherosclerosis [3]; FIG. 8, 40 mg of rosuvastatin without RVX-208, after 104 weeks) was 1.30%.
In the case of `CCOc1nc(-c2cc(C)c(O)c(C)c2)nc2cc(OC)cc(OC)c12` [4-(4-ethoxy-5,7-dimethoxyquinazolin-2-yl)-2,6-dimethylphenol], the “Effect on ApoA-I mRNA levels” value (ApoA-I mRNA) is reported as “Inactive”.
With `Cc1cc(C)c2c(=O)[nH]c(-c3cc(C)c(OCCO)c(C)c3)nc2c1` [2-(4-(2-hydroxyethoxy)-3,5-dimethylphenyl)-5,7-dimethylquinazolin-4(3H)-one] the “Effect on ApoA-I mRNA levels” value (ApoA-I mRNA) was “Active”.
For `COc1cc(OC)c2c(=O)[nH]c(-c3cc(C)c(OCCOC(=O)NC4CCCCC4)c(C)c3)nc2c1` [2-(4-(5,7-dimethoxy-4-oxo-3,4-dihydroquinazolin-2-yl)-2,6-dimethylphenoxy)ethyl cyclohexylcarbamate], the “Effect on ApoA-I mRNA levels” value (ApoA-I mRNA) was “Active”.
With `COc1cc(OC)c2c(=O)[nH]c(-c3ccc(O)cc3)nc2c1` [2-(4-hydroxyphenyl)-5,7-dimethoxyquinazolin-4(3H)-one] the “Effect on ApoA-I mRNA levels” value (ApoA-I mRNA) was “Active”.
In the case of `COc1cc(OC)c2c(=O)[nH]c(-c3ccc(CCC(=O)O)cc3)nc2c1` [3-(4-(5,7-dimethoxy-4-oxo-3,4-dihydroquinazolin-2-yl)phenyl)propanoic acid], the “Effect on ApoA-I mRNA levels” value (ApoA-I mRNA) is reported as “Active”.
For `COc1cc(OC)c2c(=O)[nH]c(-c3cc(C)c(OC)c(C)c3)nc2c1` [5,7-dimethoxy-2-(4-methoxy-3,5-dimethylphenyl)quinazolin-4(3H)-one], the “Effect on ApoA-I mRNA levels” value (ApoA-I mRNA) was “Active”.
In the case of `COc1cc(OC)c2c(=O)[nH]c(-c3cc(C)c(OCCO)c(C)c3)cc2c1` [3-(4-(2-hydroxyethoxy)-3,5-dimethylphenyl)-6,8-dimethoxyisoquinolin-1(2H)-one], the “Effect on ApoA-I mRNA levels” value (ApoA-I mRNA) is reported as “Active”.
For `COc1cc(OC)c2c(=O)[nH]c(-c3ccc(C)cc3)nc2c1` [5,7-dimethoxy-2-p-tolylquinazolin-4(3H)-one], the “Effect on ApoA-I mRNA levels” value (ApoA-I mRNA) was “Inactive”.
